Test results published in US11447472B2, “Polymorophs of 5-aza-4′-thio-2′-deoxycytidine” (Southern Research Institute, priority 2020, dated 2022).
Read-outs that look alike come from different tables or passages of the source.

Assays:
[1] = Physical stability of solid forms under accelerated aging conditions (AAC, 25° C./60% RH, two days), HT-XRPD; conditions: for AAC (form found after storage): Table 4, storage at 25° C., 60% relative humidity; for conversion after storage at 25° C., 60% relative humidity: two days
Procedure: All solids were exposed to accelerated aging conditions (2 days at 25° C./60% RH) and re-analyzed by HT-XRPD.
Subsequently, the solids were placed at 25° C./60% RH for two days (AAC) and re-analyzed by XRPD.
Subsequently, all solids were exposed to accelerated aging conditions for two days (AAC, 25° C./60% RH) and re-analyzed by HT-XRPD.
Subsequently, all the solids were exposed to accelerated aging conditions (25° C./60% RH) for two days and re-analyzed by HT-XRPD.
All solids were then exposed to accelerated aging conditions (2 days at 25° C./60% RH) followed by HT-XRPD re-analysis.
Subsequently, all solids were exposed to accelerated aging conditions (2 days at 25° C./60% RH) and re-analyzed by HT-XRPD.
Subsequently, all solids were exposed to accelerated aging conditions (25° C./60% RH) for two days and then re-analyzed by HT-XRPD.

in vivo = conditions: male, SD, rat, 2 mg/kg; for concentration at 0.25 h / concentration at 0.5 h / concentration at 1 h / concentration at 2 h / concentration at 4 h / concentration at 6 h / concentration at 8 h / concentration at 24 h: Concentration (plasma); for AUC(0-inf) / AUC(0-t) / Cmax / MRT inf / half-life / Tmax: po; for AUC(0-inf): AUCInf; for AUC(0-t): AUClast; for MRT inf: MRTInf_obs
[2] = in vivo, 2 mg/kg
[3] = Dissolution rate (IDR) at pH 1.2, 6.5 and 5.0; assay type: physicochemical

In the case of `Nc1ncn([C@H]2C[C@H](O)[C@@H](CO)S2)c(=O)n1` [A + D2, 5-Aza-4′-thio-2′-deoxycytidine], the “AAC (form found after storage)” value ([1]; sample obtained by ECP from MeOH) is reported as “A + L”.
For `Nc1ncn([C@H]2C[C@H](O)[C@@H](CO)S2)c(=O)n1` [Form B, 5-Aza-4′-thio-2′-deoxycytidine], the physical stability ([1]; in words) was “physically unstable”, the “conversion after storage at 25° C., 60% relative humidity” value (shortened to “conversion … 60% relative humidity”) ([1]; text) was “converted to Form A” and the “conversion … 60% relative humidity” value ([1]; text, listed as B) was “convert to Form A”.
In the case of `Nc1ncn([C@H]2C[C@H](O)[C@@H](CO)S2)c(=O)n1` [Form C2, 5-Aza-4′-thio-2′-deoxycytidine], the “conversion … 60% relative humidity” value ([1]; text, listed as C2) is reported as “convert to Form A”.
With `Nc1ncn([C@H]2C[C@H](O)[C@@H](CO)S2)c(=O)n1` [Form D2, 5-Aza-4′-thio-2′-deoxycytidine] the “conversion … 60% relative humidity” value ([1]; text, listed as D2) was “convert to Form A”.
With `Nc1ncn([C@H]2C[C@H](O)[C@@H](CO)S2)c(=O)n1` [Form E, 5-Aza-4′-thio-2′-deoxycytidine] the “AAC (form found after storage)” value ([1]; sample obtained by ECP from DMA/TBME (80/20, v/v)) was “A + F”, the “conversion … 60% relative humidity” value ([1]; text) was “converts to Form A” and the “conversion … 60% relative humidity” value ([1]; text, listed as E) was “convert to Form A”.
`Nc1ncn([C@H]2C[C@H](O)[C@@H](CO)S2)c(=O)n1` [Form F, 5-Aza-4′-thio-2′-deoxycytidine] showed a concentration at 0.25 h (in vivo; Mean) of 310 ng/mL, a concentration at 0.5 h (in vivo; Mean) of 768 ng/mL and a concentration at 1 h (in vivo; Mean) of 934 ng/mL. The concentration at 2 h (in vivo; Mean) was 755 ng/mL, the concentration at 4 h (in vivo; Mean) was 457 ng/mL and the concentration at 6 h (in vivo; Mean) was 324 ng/mL. It also gave a concentration at 8 h (in vivo; Mean) of 222 ng/mL, a concentration at 24 h (in vivo; Mean) of 5.43 ng/mL and a concentration at 0.25 h (in vivo; individual rat) of 225 ng/mL. It also gave a concentration at 0.5 h (in vivo; individual rat) of 755 ng/mL, a concentration at 1 h (in vivo; individual rat) of 886 ng/mL and a concentration at 2 h (in vivo; individual rat) of 746 ng/mL. For the same molecule, the concentration at 4 h (in vivo; individual rat) was 536 ng/mL, the concentration at 6 h (in vivo; individual rat) was 362 ng/mL and the concentration at 8 h (in vivo; individual rat) was 245 ng/mL. The concentration at 24 h (in vivo; individual rat) was 7.04 ng/mL, the AUC(0-inf) (in vivo; Mean) was 5820 ng·h/mL and the AUC(0-inf) (in vivo; individual rat) was 6210 ng·h/mL. It also gave an AUC(0-t) (in vivo; Mean) of 5800 ng·h/mL, an AUC(0-t) (in vivo; individual rat) of 6180 ng·h/mL and a Cmax (in vivo; Mean) of 934 ng/mL. The Cmax (in vivo; individual rat) was 886 ng/mL, the MRT inf (in vivo; Mean) was 4.86 h and the MRT inf (in vivo; individual rat) was 5.09 h. It also gave a half-life (in vivo; T1/2, Mean) of 3 h, a half-life (in vivo; T1/2, individual rat) of 3.15 h and a Tmax (in vivo; Mean) of 1 h. The Tmax (in vivo; individual rat) was 1 h, the “Concentration (plasma), individual rat” value ([2]; male, SD, 0.25 h) was 394 ng/mL and the “Concentration (plasma), individual rat” value ([2]; male, SD, 0.5 h) was 780 ng/mL. For the same molecule, the “Concentration (plasma), individual rat” value ([2]; male, SD, 1 h) was 982 ng/mL, the “Concentration (plasma), individual rat” value ([2]; male, SD, 2 h) was 764 ng/mL and the “Concentration (plasma), individual rat” value ([2]; male, SD, 4 h) was 377 ng/mL. The “Concentration (plasma), individual rat” value ([2]; male, SD, 6 h) was 285 ng/mL, the “Concentration (plasma), individual rat” value ([2]; male, SD, 8 h) was 199 ng/mL and the “Concentration (plasma), individual rat” value ([2]; male, SD, 24 h) was 3.81 ng/mL. For the same molecule, the “AUCInf, individual rat” value ([2]; male, SD, po) was 5435 ng·h/mL, the “AUClast, individual rat” value ([2]; male, SD, po) was 5419 ng·h/mL and the “Cmax, individual rat” value ([2]; male, SD, po) was 982 ng/mL. For the same molecule, the “MRTInf_obs, individual rat” value ([2]; male, SD, po) was 4.63 h, the “T1/2, individual rat” value ([2]; male, SD, po) was 2.86 h and the “AUC values higher than SM” value ([2]; male, SD, rat) was “about 30%”. The “AUC_%Extrap_obs, Mean” value ([2]; male, SD, rat) was 0.402%, the AUClast/D, Mean ([2]; male, SD, rat) was 2900 ng·h/mL per mg/kg and the “Cmax value relative to SM” value ([2]; rat) was “about 1.4 times”. It also gave an IDR ([3]; FaSSIF, pH 6.5) of 2.7 ± 0.05 mg/mL/Cm^2/min, an IDR ([3]; FeSSIF, pH 5.0) of 6.0 ± 0.70 mg/mL/Cm^2/min and an IDR ([3]; SGF, pH 1.2) of 7.0 ± 1.26 mg/mL/Cm^2/min.
With `Nc1ncn([C@H]2C[C@H](O)[C@@H](CO)S2)c(=O)n1` [Form G1, 5-Aza-4′-thio-2′-deoxycytidine] the “conversion … 60% relative humidity” value ([1]; text) was “convert to Form A” and the “conversion … 60% relative humidity” value ([1]; text, listed as G1) was “convert to Form A”.
For `Nc1ncn([C@H]2C[C@H](O)[C@@H](CO)S2)c(=O)n1` [Form G2, 5-Aza-4′-thio-2′-deoxycytidine], the “conversion … 60% relative humidity” value ([1]; text) was “convert to Form A” and the “conversion … 60% relative humidity” value ([1]; text, listed as G2) was “convert to Form A”.
With `Nc1ncn([C@H]2C[C@H](O)[C@@H](CO)S2)c(=O)n1` [Form H, 5-Aza-4′-thio-2′-deoxycytidine] the “AAC (form found after storage)” value ([1]; sample from the method/solvent of that table row) was “F + H”, the “conversion … 60% relative humidity” value [1] was “convert to Form A” and the “conversion of the form” value ([1]; when obtained from NMP) was “converted to Form F”. The “conversion of the form” value ([1]; when obtained from other solvents) was “converted to Form A”.
With `Nc1ncn([C@H]2C[C@H](O)[C@@H](CO)S2)c(=O)n1` [Form I, 5-Aza-4′-thio-2′-deoxycytidine] the “conversion … 60% relative humidity” value ([1]; text) was “converts to Form A” and the “conversion … 60% relative humidity” value ([1]; text, listed as I) was “convert to Form A”.
For `Nc1ncn([C@H]2C[C@H](O)[C@@H](CO)S2)c(=O)n1` [Form J, 5-Aza-4′-thio-2′-deoxycytidine], the “conversion … 60% relative humidity” value ([1]; text) was “converts to Form A” and the “conversion … 60% relative humidity” value ([1]; text, listed as J) was “convert to Form A”.
With `Nc1ncn([C@H]2C[C@H](O)[C@@H](CO)S2)c(=O)n1` [Form K, 5-Aza-4′-thio-2′-deoxycytidine] the “conversion … 60% relative humidity” value ([1]; text) was “converted to Form F” and the “conversion … 60% relative humidity” value ([1]; text, listed as K) was “convert to Form A”.
